Drawing on US20150329558A1, “FUSED HETEROCYCLIC COMPOUNDS AS ION CHANNEL MODULATORS” (Gilead Sciences, Inc., priority 2011, published 2015), this text covers inhibition for 26 molecules.

Sequence of wild-type human cardiac sodium channel, hNav1.5 (late INa) (Q14524 whole entry): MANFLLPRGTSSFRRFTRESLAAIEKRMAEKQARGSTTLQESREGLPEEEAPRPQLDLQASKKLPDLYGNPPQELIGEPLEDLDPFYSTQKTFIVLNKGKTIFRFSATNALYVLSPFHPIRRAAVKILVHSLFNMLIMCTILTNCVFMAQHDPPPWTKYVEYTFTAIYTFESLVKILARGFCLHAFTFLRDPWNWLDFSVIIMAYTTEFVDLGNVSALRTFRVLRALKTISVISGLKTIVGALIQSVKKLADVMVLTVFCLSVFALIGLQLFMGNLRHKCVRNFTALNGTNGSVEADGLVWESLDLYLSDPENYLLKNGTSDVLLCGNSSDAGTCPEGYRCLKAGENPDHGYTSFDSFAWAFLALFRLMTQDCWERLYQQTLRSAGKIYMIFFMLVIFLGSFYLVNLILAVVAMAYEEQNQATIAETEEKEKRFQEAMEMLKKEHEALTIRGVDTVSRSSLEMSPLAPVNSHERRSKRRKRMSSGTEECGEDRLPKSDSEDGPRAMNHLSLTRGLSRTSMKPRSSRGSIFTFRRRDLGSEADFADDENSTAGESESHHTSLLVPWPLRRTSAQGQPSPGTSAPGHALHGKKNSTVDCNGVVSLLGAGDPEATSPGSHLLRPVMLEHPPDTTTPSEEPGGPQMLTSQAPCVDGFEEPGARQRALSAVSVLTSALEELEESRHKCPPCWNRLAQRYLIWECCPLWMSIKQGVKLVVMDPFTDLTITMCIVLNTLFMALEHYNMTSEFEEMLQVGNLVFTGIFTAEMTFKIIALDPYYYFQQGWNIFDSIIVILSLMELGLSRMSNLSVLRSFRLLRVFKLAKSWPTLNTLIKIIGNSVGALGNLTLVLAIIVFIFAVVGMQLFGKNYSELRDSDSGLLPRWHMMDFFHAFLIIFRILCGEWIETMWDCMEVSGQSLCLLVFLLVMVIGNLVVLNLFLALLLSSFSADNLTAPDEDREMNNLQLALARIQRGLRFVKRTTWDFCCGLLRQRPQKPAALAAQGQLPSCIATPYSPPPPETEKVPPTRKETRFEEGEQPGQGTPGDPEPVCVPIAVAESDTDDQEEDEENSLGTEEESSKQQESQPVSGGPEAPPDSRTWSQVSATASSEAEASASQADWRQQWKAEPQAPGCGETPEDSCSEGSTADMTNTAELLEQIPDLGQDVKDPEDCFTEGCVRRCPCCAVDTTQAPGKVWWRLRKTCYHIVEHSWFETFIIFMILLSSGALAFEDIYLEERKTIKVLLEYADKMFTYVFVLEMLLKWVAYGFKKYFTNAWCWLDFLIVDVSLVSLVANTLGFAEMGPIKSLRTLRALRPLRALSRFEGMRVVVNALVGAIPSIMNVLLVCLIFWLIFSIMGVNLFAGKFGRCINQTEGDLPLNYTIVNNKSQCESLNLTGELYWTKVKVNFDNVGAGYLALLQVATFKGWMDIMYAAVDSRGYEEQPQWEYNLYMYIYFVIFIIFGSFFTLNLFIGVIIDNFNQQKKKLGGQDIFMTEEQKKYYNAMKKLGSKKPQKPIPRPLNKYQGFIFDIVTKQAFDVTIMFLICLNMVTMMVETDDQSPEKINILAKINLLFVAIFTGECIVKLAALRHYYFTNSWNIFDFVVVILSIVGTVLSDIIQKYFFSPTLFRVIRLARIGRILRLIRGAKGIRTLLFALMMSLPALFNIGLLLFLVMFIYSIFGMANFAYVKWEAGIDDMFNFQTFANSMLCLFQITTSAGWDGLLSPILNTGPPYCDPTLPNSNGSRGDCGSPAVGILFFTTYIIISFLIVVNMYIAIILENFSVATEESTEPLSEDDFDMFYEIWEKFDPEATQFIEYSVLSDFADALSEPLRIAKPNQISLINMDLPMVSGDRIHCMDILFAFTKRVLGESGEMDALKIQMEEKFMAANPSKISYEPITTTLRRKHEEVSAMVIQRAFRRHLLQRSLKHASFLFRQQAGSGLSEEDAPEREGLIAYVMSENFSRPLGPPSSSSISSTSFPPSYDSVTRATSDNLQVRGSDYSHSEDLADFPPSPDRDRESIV

The target of the assay is wild-type human cardiac sodium channel, hNav1.5 (late INa) (Homo sapiens, UniProt Q14524). Put plainly: Late INa screening assay (QPatch whole cell patch clamp). It is filed as cell-based. The note with it: percent block of late INa, compound at 1 μM, 10 μM Tefluthrin, HEK293 hNav1.5; read-out: Late INa 1 μM. The method, then:
The late sodium current (Late INa) and peak sodium current (Peak INa) assays are performed on an automated electrophysiology platform, QPatch 16× (Sophion Bioscience, Copenhagen, Denmark), which uses the whole cell patch clamp technique to measure currents through the cell membrane of up to 16 cells at a time. The assay uses an HEK293 (human embryonic kidney) cell line heterologously expressing the wild-type human cardiac sodium channel, hNav1.5, purchased from Millipore (Billerica, Mass.). No beta subunits were coexpressed with the Na channel alpha subunit. Cells are maintained with standard tissue culture procedures and stable channel expression is maintained with 400 μg/mL Geneticin in the culture medium. […] Experiments are carried out at 23-25° C. For both the Late INa and Peak INa assays, series resistance compensation is set to 100% and series resistance and whole-cell compensation are performed automatically. Currents are digitized at 25 kHz and low-pass filtered at 12 kHz and 10 kHz for the late and peak INa assays, respectively. Currents through open sodium channels are automatically recorded and stored in the Sophion Bioscience Oracle database (Sophion Bioscience, Copehagen, Denmark). Analysis is performed using QPatch Assay and database software and data are compiled in Excel. Compound stocks are routinely made by the Gilead Sample Bank in plastic vials to 10 mM in dimethyl sulfoxide (DMSO). In some cases, when compounds are not soluble in DMSO, they are made in 100% ethanol. Stocks are sonicated as necessary. […] The intracellular solution used to perfuse the inside of the cells for both the Late INa and Peak INa assays contains: 120 mM CsF, 20 mM CsCl, 5 mM EGTA, 5 mM HEPES and pH adjusted to 7.4 with CsOH. Compounds are diluted in extracellular solution to 1 μM in glass vials and then transferred to glass well plates before robotic addition to the cells. […] For the Late INa assay, sodium channels are activated every 10 seconds (0.1 Hz) by depolarizing the cell membrane to −20 mV for 250 milliseconds (ms) from a holding potential of −120 mV. In response to a −20 mV voltage step, typical hNav1.5 sodium currents activate rapidly to a peak negative current and then inactivate nearly completely within 3-4 ms. All compounds were tested to determine their activity in blocking the late sodium current. Late INa was generated by adding 10 μM Tefluthrin (pyrethroid) to the extracellular solution while recording Na currents. To confirm the block of late INa observed using the automated screening method, a second late INa enhancer (ATX-II) and the manual patch clamp method were used. ATX-II and tefluthrin occupy distinct, non-overlapping binding sites and modify Na^+ channel function differently to increase late INa. […] For the purposes of the screening, late INa is defined as the mean current between 225 ms and 250 ms after stepping to −20 mV to activate Na channels. […] Results are reported as percent block of late INa.
Background: Patch clamp records ionic current or voltage across a cell membrane.
As for `CC1CCN(C(=O)N2CCc3ccc(-c4ccc(C(F)(F)F)cc4)cc3C2)C1` (centres unmarked) [IX-90, (3-methylpyrrolidin-1-yl)(7-(4-(trifluoromethyl)phenyl)-3,4-dihydroisoquinolin-2(1H)-yl)methanone], the inhibition at 1 µM came out at 27%.
In the case of `O=C(N1CCc2ccc(-c3ccc(C(F)(F)F)cc3)cc2C1)N1CCC(O)C1` (centres unmarked) [IX-91, (3-hydroxypyrrolidin-1-yl)(7-(4-(trifluoromethyl)phenyl)-3,4-dihydroisoquinolin-2(1H)-yl)methanoneo] it was 16%.
Then `O=C(N1CCc2ccc(-c3ccc(C(F)(F)F)cc3)cc2C1)N1CC(F)(F)C1` [IX-92, (3,3-difluoroazetidin-1-yl)(7-(4-(trifluoromethyl)phenyl)-3,4-dihydroisoquinolin-2(1H)-yl)methanone], with 17%; and `O=C(N1CCc2ccc(-c3ccc(C(F)(F)F)cc3)cc2C1)N1CC(Oc2cccnc2)C1` [IX-93, (3-(pyridin-3-yloxy)azetidin-1-yl)(7-(4-(trifluoromethyl)phenyl)-3,4-dihydroisoquinolin-2(1H)-yl)methanone], with 15%.
In the case of `O=C(N1CCc2ccc(-c3ccc(C(F)(F)F)cc3)cc2C1)N1CCC(F)C1` (centres unmarked) [IX-94, (3-fluoropyrrolidin-1-yl)(7-(4-(trifluoromethyl)phenyl)-3,4-dihydroisoquinolin-2(1H)-yl)methanone], the inhibition at 1 µM is 33%.
Then `O=C(N1CCc2ccc(-c3ccc(C(F)(F)F)cc3)cc2C1)N1CC(F)C1` [IX-95, (3-fluoroazetidin-1-yl)(7-(4-(trifluoromethyl)phenyl)-3,4-dihydroisoquinolin-2(1H)-yl)methanone], with 25%.
In the case of `Cn1cnc(S(=O)(=O)N2CCc3ccc(-c4ccc(C(F)(F)F)cc4)cc3C2)c1` [IX-98, 2-(1-methyl-1H-imidazol-4-ylsulfonyl)-7-(4-(trifluoromethyl)phenyl)-1,2,3,4-tetrahydroisoquinoline] it was 27%; in that of `O=C(N1CCc2ccc(-c3ccc(C(F)(F)F)cc3)cc2C1)N1CC[C@@H](CO)C1` [IX-101, (R)-(3-(hydroxymethyl)pyrrolidin-1-yl)(7-(4-(trifluoromethyl)phenyl)-3,4-dihydroisoquinolin-2(1H)-yl)methanone], 15%; in that of `O=C(N1CCc2ccc(-c3ccc(C(F)(F)F)cc3)cc2C1)N1CCC[C@H]1CO` [IX-102, (S)-(2-(hydroxymethyl)pyrrolidin-1-yl)(7-(4-(trifluoromethyl)phenyl)-3,4-dihydroisoquinolin-2(1H)-yl)methanone], 27%.
As for `CS(=O)(=O)C1CN(C(=O)N2CCc3ccc(-c4ccc(C(F)(F)F)cc4)cc3C2)C1` [IX-104, (3-(methylsulfonyl)azetidin-1-yl)(7-(4-(trifluoromethyl)phenyl)-3,4-dihydroisoquinolin-2(1H)-yl)methanone], the inhibition at 1 µM worked out at 20%.
In the case of `C[C@@H]1CC[C@H](C)N1C(=O)N1CCc2ccc(-c3ccc(C(F)(F)F)cc3)cc2C1` [IX-106] it was 21%; in that of `CC1CN(C(=O)N2CCc3ccc(-c4ccc(C(F)(F)F)cc4)cc3C2)C1` [IX-107, (3-methylazetidin-1-yl)(7-(4-(trifluoromethyl)phenyl)-3,4-dihydroisoquinolin-2(1H)-yl)methanone], 24%.
In the case of `Nc1n[nH]c(C(=O)N2CCc3ccc(-c4ccc(C(F)(F)F)cc4)cc3C2)n1` [IX-111, (3-amino-1H-1,2,4-triazol-5-yl)(7-(4-(trifluoromethyl)phenyl)-3,4-dihydroisoquinolin-2(1H)-yl)methanone] it was 27%; in that of `CC1(O)CN(C(=O)N2CCc3ccc(-c4ccc(C(F)(F)F)cc4)cc3C2)C1` [IX-112, (3-hydroxy-3-methylazetidin-1-yl)(7-(4-(trifluoromethyl)phenyl)-3,4-dihydroisoquinolin-2(1H)-yl)methanone], 18%.
With `O=C(N1CCc2ccc(-c3ccc(C(F)(F)F)cc3)cc2C1)N1CC(CO)C1` [IX-113, (3-(hydroxymethyl)azetidin-1-yl)(7-(4-(trifluoromethyl)phenyl)-3,4-dihydroisoquinolin-2(1H)-yl)methanone], the inhibition at 1 µM worked out at 17%.
Then `CC(C)(C)OC(=O)N1CCC[C@@H]1C(=O)N1CCc2ccc(-c3ccc(C(F)(F)F)cc3)cc2C1` [IX-114, (R)-tert-butyl 2-(7-(4-(trifluoromethyl)phenyl)-1,2,3,4-tetrahydroisoquinoline-2-carbonyl)pyrrolidine-1-carboxylate], with 20%.
Then `O=C(c1cnnn1-c1ccccc1)N1CCc2ccc(-c3ccc(C(F)(F)F)cc3)cc2C1` [IX-116, (1-phenyl-1H-1,2,3-triazol-5-yl)(7-(4-(trifluoromethyl)phenyl)-3,4-dihydroisoquinolin-2(1H)-yl)methanone], with 29%; and `CCOC(=O)Cn1cc(C(=O)N2CCc3ccc(-c4ccc(C(F)(F)F)cc4)cc3C2)nn1` [IX-119, ethyl 2-(4-(7-(4-(trifluoromethyl)phenyl)-1,2,3,4-tetrahydroisoquinoline-2-carbonyl)-1H-1,2,3-triazol-1-yl)acetate], with 15%.
In the case of `O=C(N1CCCC1)N1CCc2ccc(-c3ccc(OC(F)(F)F)cc3)cc2C1` [IX-122, pyrrolidin-1-yl(7-(4-(trifluoromethoxy)phenyl)-3,4-dihydroisoquinolin-2(1H)-yl)methanone] it was 36%; in that of `O=C(NCc1ncccn1)N1CCc2ccc(-c3ccc(OC(F)(F)F)cc3)cc2C1` [IX-123, N-(pyrimidin-2-ylmethyl)-7-(4-(trifluoromethoxy)phenyl)-3,4-dihydroisoquinoline-2(1H)-carboxamide], 17%; in that of `CC1(C)Oc2ccc(-c3ccc(OC(F)(F)F)cc3)cc2C(=O)N1Cc1ccccn1` [VIII-13, 2,2-dimethyl-3-(pyridin-2-ylmethyl)-6-(4-(trifluoromethoxy)phenyl)-2H-benzo[e][1,3]oxazin-4(3H)-one], 20%.
Consider `O=C1c2cc(-c3ccc(C(F)(F)F)cc3F)ccc2OCN1Cc1ncccn1` [VIII-18, 6-(2-fluoro-4-(trifluoromethyl)phenyl)-3-(pyrimidin-2-ylmethyl)-2H-benzo[e][1,3]oxazin-4(3H)-one], for which the inhibition at 1 µM is 54%.
Then `O=C1c2cc(-c3ccc(C(F)(F)F)cc3)ccc2OCN1Cc1ncccn1` [VIII-19, 3-(pyrimidin-2-ylmethyl)-6-(4-(trifluoromethyl)phenyl)-2H-benzo[e][1,3]oxazin-4(3H)-one], with 61%; and `O=C1c2cc(-c3ccc(C(F)(F)F)cc3)ccc2OCN1Cc1ccccc1` [VIII-21, 3-benzyl-6-(4-(trifluoromethyl)phenyl)-2H-benzo[e][1,3]oxazin-4(3H)-one], with 58%; and `O=C1c2cc(-c3ccc(C(F)(F)F)cc3F)ccc2OCN1Cc1ccccc1` [VIII-22, 3-benzyl-6-(2-fluoro-4-(trifluoromethyl)phenyl)-2H-benzo[e][1,3]oxazin-4(3H)-one], with 45%.
In the case of `O=C1c2cc(-c3ccc(OC(F)(F)F)cc3)ccc2OCN1Cc1ccccc1` [VIII-23, 3-benzyl-6-(4-(trifluoromethoxy)phenyl)-2H-benzo[e][1,3]oxazin-4(3H)-one] it was 48%.
